Measurements from patent publication US12539292B2, “BRM targeting compounds and associated methods of use” (Arvinas Operations, Inc., priority 2018, dated 2026).
Like-named read-outs stand apart in the source and are kept apart here.

Target: T1, BRM (Homo sapiens, UniProt P51531)
T1 construct: In-Cell Western Screen of BRM Degradation in SW1573 Cells; endogenous in cells; host or cells: SW1573
Assay: In-cell Western screen of BRM degradation in SW1573 cells (Dmax and DC50)
Format: cell-based
Method in brief: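 Near-infrared imaging on a LI-COR Odyssey (800 and 680 nm channels) quantifies BRM remaining in fixed SW1573 cells. Cells are dosed for 18-20 h at 0.1% final DMSO, and degradation is expressed as Dmax and DC50.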

[1] = SW1573, % degraded, when tested at the top concentration of between 0.3 and 10 μM, read-out: BRM Dmax (%)
[2] = target protein degradation, read-out: BRM DC50
[3] = BRM degradation, SW1573 cells, read-out: DC50
[4] = BRM degradation, SW1573 cells, tested at the top concentration of between 0.3 and 10 μM, read-out: Dmax (%) (% degraded)
[5] = BRM degradation, SW1573 cells, Table 2D, read-out: *DC50
[6] = BRM degradation, SW1573 cells, when tested at the top concentration of between 0.3 and 10 μM, read-out: Dmax (%) (% degraded)

T1 sequence (P51531 whole entry): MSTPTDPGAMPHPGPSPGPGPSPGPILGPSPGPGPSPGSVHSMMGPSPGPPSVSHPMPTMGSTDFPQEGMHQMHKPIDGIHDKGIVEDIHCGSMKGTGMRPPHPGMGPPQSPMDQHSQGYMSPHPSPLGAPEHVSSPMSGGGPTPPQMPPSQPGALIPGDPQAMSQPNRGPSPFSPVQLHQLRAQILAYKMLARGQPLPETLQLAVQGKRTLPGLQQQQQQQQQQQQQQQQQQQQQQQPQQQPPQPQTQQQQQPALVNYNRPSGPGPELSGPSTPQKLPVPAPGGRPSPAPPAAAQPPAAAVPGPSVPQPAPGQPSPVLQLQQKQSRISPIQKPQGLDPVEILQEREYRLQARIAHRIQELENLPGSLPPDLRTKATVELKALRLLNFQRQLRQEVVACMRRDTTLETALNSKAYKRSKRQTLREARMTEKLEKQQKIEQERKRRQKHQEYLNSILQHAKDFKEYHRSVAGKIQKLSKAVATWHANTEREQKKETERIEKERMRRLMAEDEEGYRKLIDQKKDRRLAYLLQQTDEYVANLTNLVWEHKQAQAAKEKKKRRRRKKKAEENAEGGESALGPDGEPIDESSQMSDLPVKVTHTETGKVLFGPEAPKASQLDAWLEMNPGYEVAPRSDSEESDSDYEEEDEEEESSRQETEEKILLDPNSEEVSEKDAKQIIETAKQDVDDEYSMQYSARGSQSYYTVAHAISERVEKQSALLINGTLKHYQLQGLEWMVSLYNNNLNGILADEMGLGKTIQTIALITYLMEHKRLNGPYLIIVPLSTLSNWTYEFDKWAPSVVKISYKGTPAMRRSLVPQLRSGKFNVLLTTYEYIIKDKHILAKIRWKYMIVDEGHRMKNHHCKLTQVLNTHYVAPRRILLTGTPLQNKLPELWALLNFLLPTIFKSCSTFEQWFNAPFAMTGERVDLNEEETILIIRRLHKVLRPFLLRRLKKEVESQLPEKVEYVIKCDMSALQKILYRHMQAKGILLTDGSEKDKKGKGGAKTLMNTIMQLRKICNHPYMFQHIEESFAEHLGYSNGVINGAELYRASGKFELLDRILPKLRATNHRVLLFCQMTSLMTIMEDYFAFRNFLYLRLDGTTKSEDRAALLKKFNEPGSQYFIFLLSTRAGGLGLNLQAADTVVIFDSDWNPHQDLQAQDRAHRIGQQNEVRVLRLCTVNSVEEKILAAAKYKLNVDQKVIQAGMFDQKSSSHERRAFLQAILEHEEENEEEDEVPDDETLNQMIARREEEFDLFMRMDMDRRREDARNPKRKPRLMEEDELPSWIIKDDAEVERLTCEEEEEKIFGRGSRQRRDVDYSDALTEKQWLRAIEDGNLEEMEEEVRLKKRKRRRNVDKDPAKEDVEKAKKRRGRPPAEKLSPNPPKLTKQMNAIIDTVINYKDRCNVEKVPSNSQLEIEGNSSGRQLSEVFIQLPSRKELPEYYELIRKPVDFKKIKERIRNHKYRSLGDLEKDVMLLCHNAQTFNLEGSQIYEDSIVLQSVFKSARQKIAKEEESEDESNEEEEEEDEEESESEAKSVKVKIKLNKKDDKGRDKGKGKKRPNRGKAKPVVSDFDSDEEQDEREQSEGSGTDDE

## Cc1nccn1-c1ccc([C@H](C)NC(=O)[C@@H]2C[C@@H](O)CN2C(=O)[C@@H](c2cc(OCC#Cc3ncc(O[C@H]4C[C@H](Oc5cc(N6C7CCC6CN(c6cc(-c8ccccc8O)nnc6N)C7)ccn5)C4)cn3)no2)C(C)C)cc1 [compound 394, (2S,4R)-1-((2R)-2-(3-((3-(5-((1r,3R)-3-((4-(3-(3-amino-6-(2-hydroxyphenyl)pyridazin-4-yl)-3,8-diazabicyclo[3.2.1]octan-8-yl)pyridin-2-yl)oxy)cyclobutoxy)pyrimidin-2-yl)prop-2-yn-1-yl)oxy)isoxazol-5-yl)-3-methylbutanoyl)-4-hydroxy-N-((S)-1-(4-(2-methyl-1H-imidazol-1-yl)phenyl)ethyl)pyrrolidine-2-carboxamide]
[1]
  Dmax: > 75%
[2]
  DC50: < 2.5 nM

## COc1cc(-c2scnc2C)ccc1[C@H](C)NC(=O)[C@@H]1C[C@@H](O)CN1C(=O)[C@H](c1cc(OCCN2CCC(O[C@H]3C[C@H](Oc4cc(N5C6CCC5CN(c5cc(-c7ccccc7O)nnc5N)C6)ccn4)C3)CC2)no1)C(C)C [compound 201, (2S,4R)-1-((2S)-2-(3-(2-(4-((1r,3S)-3-((4-(3-(3-amino-6-(2-hydroxyphenyl)pyridazin-4-yl)-3,8-diazabicyclo[3.2.1]octan-8-yl)pyridin-2-yl)oxy)cyclobutoxy)piperidin-1-yl)ethoxy)isoxazol-5-yl)-3-methylbutanoyl)-4-hydroxy-N-((S)-1-(2-methoxy-4-(4-methylthiazol-5-yl)phenyl)ethyl)pyrrolidine-2-carboxamide]
[3]
  DC50: 10 to 30 nM
[4]
  Dmax: > 75%

## Cc1ncsc1-c1ccc([C@H](C)NC(=O)[C@@H]2C[C@@H](O)CN2C(=O)[C@@H](c2cc(OCCC3CCN(C[C@H]4C[C@H](N5CCC(CN6CCOC7(CCN(c8cc(-c9ccccc9O)nnc8N)CC7)C6)CC5)C4)CC3)no2)C(C)C)cc1 [compound 598, (2S,4R)-1-((R)-2-(3-(2-(1-(((1r,3R)-3-(4-((9-(3-amino-6-(2-hydroxyphenyl)pyridazin-4-yl)-1-oxa-4,9-diazaspiro[5.5]undecan-4-yl)methyl)piperidin-1-yl)cyclobutyl)methyl)piperidin-4-yl)ethoxy)isoxazol-5-yl)-3-methylbutanoyl)-4-hydroxy-N-((S)-1-(4-(4-methylthiazol-5-yl)phenyl)ethyl)pyrrolidine-2-carboxamide]
BRM degradation, SW1573 cells, Table 2D, read-out: **Dmax (%) (% degraded)
  Dmax: > 75%
[5]
  DC50: < 2.5 nM

## Cc1ncsc1-c1ccc([C@@H](CN)NC(=O)[C@@H]2C[C@@H](O)CN2C(=O)[C@H](c2cc(OCCN3CCN(CCOc4cc(N5C6CCC5CN(c5cc(-c7ccccc7O)nnc5N)C6)ccn4)CC3)no2)C(C)C)cc1 [compound 255, (2S,4R)-N-((S)-2-amino-1-(4-(4-methylthiazol-5-yl)phenyl)ethyl)-1-((2S)-2-(3-(2-(4-(2-((4-(3-(3-amino-6-(2-hydroxyphenyl)pyridazin-4-yl)-3,8-diazabicyclo[3.2.1]octan-8-yl)pyridin-2-yl)oxy)ethyl)piperazin-1-yl)ethoxy)isoxazol-5-yl)-3-methylbutanoyl)-4-hydroxypyrrolidine-2-carboxamide]
[3]
  DC50: > 30 nM

## CC(C)[C@@H](C(=O)N1C[C@H](O)C[C@H]1C(=O)N[C@@H](C)c1ccc(-c2nccn2C)cc1)c1cc(OCCN2CCN(CCOc3cc(N4C5CCC4CN(c4cc(-c6ccccc6O)nnc4N)C5)ccn3)CC2)no1 [compound 115, (2S,4R)-1-((2R)-2-(3-(2-(4-(2-((4-(3-(3-amino-6-(2-hydroxyphenyl)pyridazin-4-yl)-3,8-diazabicyclo[3.2.1]octan-8-yl)pyridin-2-yl)oxy)ethyl)piperazin-1-yl)ethoxy)isoxazol-5-yl)-3-methylbutanoyl)-4-hydroxy-N-((S)-1-(4-(1-methyl-1H-imidazol-2-yl)phenyl)ethyl)pyrrolidine-2-carboxamide]
[3]
  DC50: > 30 nM
[6]
  Dmax: 50 to 75%

## Cc1ncsc1-c1ccc([C@@H](NC(=O)[C@@H]2C[C@@H](O)CN2C(=O)[C@H](c2cc(N3CCC(CN4CCC(O[C@H]5C[C@H](Oc6cc(N7C8CCC7CN(c7cc(-c9ccccc9O)nnc7N)C8)ccn6)C5)CC4)CC3)no2)C(C)C)C(=O)N(C)C2CCC2)cc1 [compound 611, (2S,4R)-1-((2S)-2-(3-(4-((4-((1r,3r)-3-((4-(3-(3-amino-6-(2-hydroxyphenyl)pyridazin-4-yl)-3,8-diazabicyclo[3.2.1]octan-8-yl)pyridin-2-yl)oxy)cyclobutoxy)piperidin-1-yl)methyl)piperidin-1-yl)isoxazol-5-yl)-3-methylbutanoyl)-N-((R)-2-(cyclobutyl(methyl)amino)-1-(4-(4-methylthiazol-5-yl)phenyl)-2-oxoethyl)-4-hydroxypyrrolidine-2-carboxamide]
[5]
  DC50: > 30 nM

## Cc1ncsc1-c1ccc(CNC(=O)[C@@H]2C[C@@H](O)CN2C(=O)[C@H](c2cc(OCCN3CCN(CCCc4cc(N5C6CCC5CN(c5cc(-c7ccccc7O)nnc5N)C6)ccn4)CC3)no2)C(C)C)cc1 [compound 43, (2S,4R)-1-[(2S)-2-[3-(2-[4-[3-(4-[3-[3-amino-6-(2-hydroxyphenyl)pyridazin-4-yl]-3,8-diazabicyclo[3.2.1]octan-8-yl]pyridin-2-yl)propyl]piperazin-1-yl]ethoxy)-1,2-oxazol-5-yl]-3-methylbutanoyl]-4-hydroxy-N-[[4-(4-methyl-1,3-thiazol-5-yl)phenyl]methyl]pyrrolidine-2-carboxamide]
[6]
  Dmax: < 50%

## Cc1ncsc1-c1ccc([C@H](C)NC(=O)[C@@H]2C[C@@H](O)CN2C(=O)[C@H](c2cc(OCC[C@H]3CCN(C[C@H]4C[C@H](Oc5cc(N6C7CCC6CN(c6cc(-c8ccccc8O)nnc6N)C7)ccn5)C4)C[C@H]3C)no2)C(C)C)cc1 (racemic) [compound 565, (2S,4R)-1-((2S)-2-(3-(2-((3S,4R)-1-(((1r,3S)-3-((4-(3-(3-amino-6-(2-hydroxyphenyl)pyridazin-4-yl)-3,8-diazabicyclo[3.2.1]octan-8-yl)pyridin-2-yl)oxy)cyclobutyl)methyl)-3-methylpiperidin-4-yl)ethoxy)isoxazol-5-yl)-3-methylbutanoyl)-4-hydroxy-N-((S)-1-(4-(4-methylthiazol-5-yl)phenyl)ethyl) pyrrolidine-2-carboxamide]
[5]
  DC50: > 30 nM

## Cc1nccn1-c1ccc([C@H](C)NC(=O)[C@@H]2C[C@@H](O)CN2C(=O)[C@H](c2cc(OCC#Cc3ncc(O[C@H]4C[C@H](Oc5cc(N6C7CCC6CN(c6cc(-c8ccccc8O)nnc6N)C7)ccn5)C4)cn3)no2)C(C)C)cc1 [compound 393, (2S,4R)-1-((2S)-2-(3-((3-(5-((1r,3S)-3-((4-(3-(3-amino-6-(2-hydroxyphenyl)pyridazin-4-yl)-3,8-diazabicyclo[3.2.1]octan-8-yl)pyridin-2-yl)oxy)cyclobutoxy)pyrimidin-2-yl)prop-2-yn-1-yl)oxy)isoxazol-5-yl)-3-methylbutanoyl)-4-hydroxy-N-((S)-1-(4-(2-methyl-1H-imidazol-1-yl)phenyl)ethyl)pyrrolidine-2-carboxamide]
[1]
  Dmax: > 75%
[2]
  DC50: > 30 nM

## Cc1ncsc1-c1ccc([C@H](C)NC(=O)[C@@H]2C[C@@H](O)CN2C(=O)[C@H](c2onc(OCCN3CCC(O[C@H]4C[C@H](Oc5cc(N6C7CCC6CN(c6cc(-c8ccccc8O)nnc6N)C7)ccn5)C4)CC3)c2F)C(C)C)cn1 [compound 269, (2S,4R)-1-((2S)-2-(3-(2-(4-((1r,3S)-3-((4-(3-(3-amino-6-(2-hydroxyphenyl)pyridazin-4-yl)-3,8-diazabicyclo[3.2.1]octan-8-yl)pyridin-2-yl)oxy)cyclobutoxy)piperidin-1-yl)ethoxy)-4-fluoroisoxazol-5-yl)-3-methylbutanoyl)-4-hydroxy-N-((S)-1-(6-(4-methylthiazol-5-yl)pyridin-3-yl)ethyl)pyrrolidine-2-carboxamide]
[3]
  DC50: > 30 nM

## Cc1ncsc1-c1ccc([C@H](C)NC(=O)[C@@H]2C[C@@H](O)CN2C(=O)[C@@H](c2cc(OCCCN3CCC(O[C@H]4C[C@H](Oc5cc(N6C7CCC6CN(c6cc(-c8ccccc8O)nnc6N)C7)ccn5)C4)CC3)no2)C(C)C)cc1 [compound 218, (2S,4R)-1-((2R)-2-(3-(3-(4-((1r,3R)-3-((4-(3-(3-amino-6-(2-hydroxyphenyl)pyridazin-4-yl)-3,8-diazabicyclo[3.2.1]octan-8-yl)pyridin-2-yl)oxy)cyclobutoxy)piperidin-1-yl)propoxy)isoxazol-5-yl)-3-methylbutanoyl)-4-hydroxy-N-((S)-1-(4-(4-methylthiazol-5-yl)phenyl)ethyl)pyrrolidine-2-carboxamide]
[3]
  DC50: < 2.5 nM
[4]
  Dmax: > 75%

## Cc1ncsc1-c1ccc([C@H](C)NC(=O)[C@@H]2C[C@@H](O)CN2C(=O)[C@@H](c2cc(OCCN3CC[C@@H](O[C@H]4C[C@H](Oc5cc(N6C7CCC6CN(c6cc(-c8ccccc8O)nnc6N)C7)ccn5)C4)C[C@H]3C)no2)C(C)C)cc1 (single isomer, unassigned) [compound 634]
[3]
  DC50: < 2.5 nM
BRM degradation, SW1573 cells, read-out: Dmax (% degraded)
  Dmax: > 75%

## Cc1ncsc1-c1ccc([C@H](C)NC(=O)[C@@H]2C[C@@H](O)CN2C(=O)[C@@H](c2cc(OCCC3CCN(C(=O)[C@H]4C[C@H](CN5CCC([C@@H](C)n6cc(-c7cc(-c8ccccc8O)nnc7N)cn6)CC5)C4)CC3)no2)C(C)C)cc1 [compound 456, (2S,4R)-1-((R)-2-(3-(2-(1-((1R,3R)-3-((4-((R)-1-(4-(3-amino-6-(2-hydroxyphenyl)pyridazin-4-yl)-1H-pyrazol-1-yl)ethyl)piperidin-1-yl)methyl)cyclobutane-1-carbonyl)piperidin-4-yl)ethoxy)isoxazol-5-yl)-3-methylbutanoyl)-4-hydroxy-N-((S)-1-(4-(4-methylthiazol-5-yl)phenyl)ethyl)pyrrolidine-2-carboxamide]
[2]
  DC50: > 30 nM
